Series [1] can be described thus: Stability tests of treprostinil forms (dimer formation, room temperature stability). It counts as physicochemical. On the procedure:
The anhydrous form of treprostinil (TREPROSTINIL) has been previously described, e.g., in J. Org. Chem. 2004, 69, 1890-1902. […] A larger amount of dimers can form at higher temperatures. However, dimer formation is negligible at 5° C. Therefore, anhydrous treprostinil must be refrigerated for storage and transport. In the past, treprostinil had to be refrigerated and shipped with ice packs to maintain low (2° C.-8° C.) temperatures.
The instability of anhydrous treprostinil also imposes challenges to its preparation. To obtain anhydrous treprostinil, wet compound from recrystallization was heated in a vacuum. […] Therefore, heating temperature must be carefully controlled to avoid high heat when drying treprostinil in order to remove all water, otherwise these two dimer impurities will be produced.
Data has been generated to characterize a monohydrate form of treprostinil. […] Treprostinil monohydrate can be stored and shipped with no special handling.

Series [2] in a line: Stability of anhydrous treprostinil at 25° C. (6-month stability report, lot 01A07002). It counts as physicochemical. On the procedure: II. Stability of Anhydrous Form Versus Monohydrate Form of TREPROSTINIL at 25° C.
1. Stability Report (6-month) for anhydrous lot #01A07002
A 3.34-kg sample of treprostinil diethanolamine salt was dissolved in 40 L of sterile water, 60 L of ethyl acetate and 3.2 L of 3 M HCl were added and the mixture stirred. The layers were separated and the aqueous layer was extracted thrice with 20-L portions of ethyl acetate. The four organic layers were combined, the organic solution washed twice with 20-L portions of sterile water, once with 20 L of brine and dried over 2.97 kg of anhydrous sodium sulfate. The mixture was filtered and the filtrate was concentrated to yield treprostinil as a gummy solid. This solid was transferred to glass drying trays and let air-dry for 93 hours. This solid was then dissolved in 23.4 kg of ethanol, warmed to 48° C. and treated with 23.4 kg of warm (40-50° C.) sterile water. The solution was stirred and then stirring was stopped to allow the treprostinil to slowly crystallize. The resulting white solid was collected by filtration in an Aurora filter, washed with 45 L of a cold (6° C.) 20% ethanol in sterile water solution, the filter moved to a Hepa-filtered Finishing Room and the solid dried under house vacuum for 22.3 hours. The solid was transferred to drying trays and further dried in a vacuum oven at 55 deg. C and 0.26 Torr for 22.7 hours to give 2.63 kg (96.3%) of anhydrous treprostinil (Lot #01A07002) as a white solid.

Consider `CCCCC[C@H](O)CC[C@@H]1[C@H]2Cc3cccc(OCC(=O)O)c3C[C@H]2C[C@H]1O` [Lot No. 01 A07002 (Anhydrous), 2-((1R,2R,3aS,9aS)-2-hydroxy-1-((S)-3-hydroxyoctyl)-2,3,3a,4,9,9a-hexahydro-1H-cyclopenta[b]naphthalen-5-yloxy)acetic acid], for which the Dimer formation entry in series [1] (5° C.) is given as “negligible”. The “Stability (stability tests)” value in series [1] (25° C., dimers formed upon standing) was “not stable”. The “Dimer formation on heating the solid” value in series [1] (solid heated above 50° C. in vacuum drying) was “two dimers of treprostinil formed”. Also, in series [2] (3 months), the “HPLC Assay 750W93” value is reported as 1.2, the “HPLC Assay 751W93” value is 0.9, the “HPLC Assay Treprostinil” value is listed as 98.1% and the Physical examination result is recorded as “White powder”. Further, in series [2] (3 months), the “Water (Karl Fischer)” value is 0.7%. In series [2] (6 months), the “HPLC Assay 750W93” value was 1.5, the “HPLC Assay 751W93” value is 1.1, the “HPLC Assay Treprostinil” value amounted to 95.4% and the Physical examination entry is on record as “White powder”. Besides, the “Water (Karl Fischer)” value in series [2] (6 months) is 0.8%. For the same molecule, in series [2] (Initial), the “HPLC Assay 750W93” value is recorded as 0.2, the “HPLC Assay 751W93” value is 0.3, the “HPLC Assay Treprostinil” value is 99.6% and the Physical examination entry was “White powder”. The “Water (Karl Fischer)” value in series [2] (Initial) stood at 0.4%.
